Experiments:
[1] = Phase 1 open-label study: impact of CYP1A2 inhibition (fluvoxamine) and induction (smoking) on pirfenidone pharmacokinetics; assay type: in vivo, human; settings: for effect of fluvoxamine co-administration on AUC0-∞: Day 11 vs Day 1, paired t-test; for Ratio of Day 11 AUC0-∞ to Day 1 AUC0-∞, Mean (SD) / Ratio of Day 11 AUC0-∞ to Day 1 AUC0-∞, Median (25th-75th): Day 11 with fluvoxamine; for AUC0-∞ Mean (SD) / AUC0-∞ Median (25th-75th): single 801-mg dose of pirfenidone, healthy subjects n = 51, plasma
Experimental: Fifty-four subjects were to be enrolled in two groups, consisting of 27 subjects who were smokers (Group 1) and 27 subjects who were nonsmokers (Group 2). Each group (smokers and nonsmokers) was to include a minimum of nine females and nine males, and attempts were to be made to enroll equal numbers of each sex in each group.
All pharmacokinetic (PK) analyses were conducted using population PK methods using Monte-Carlo parametric expectation maximization as implemented in the open-source software program S ADAPT 1.5.6 (Bauer et al., AAPS Journal 9 (1):E60-83, 2007). The structural model for the analysis was obtained from a preliminary population PK analysis.
If other subject characteristics (such as body size or age) were also associated with the ratio of AUC0-∞ on Day 11 to that on Day 1, the significance of these covariates was also tested.

[2] = tested on: multiple other CYPs (1A1, 2A6, 2B6, 2C8, 2C9, 2C18, 2C19, 2D6, 2E1, 2J2, 3A4, 3A5, 4A11, and 4F2); assay: in vitro experiments on pirfenidone metabolism by CYP isoforms; assay type: in vitro ADME; settings: each isoform
CYP1A2 = CYP1A2 (Homo sapiens, UniProt P05177); assay: as above; assay type: in vitro ADME
[3] = pirfenidone therapy, oral; cited from earlier work

Sequence of CYP1A2 (P05177 whole entry): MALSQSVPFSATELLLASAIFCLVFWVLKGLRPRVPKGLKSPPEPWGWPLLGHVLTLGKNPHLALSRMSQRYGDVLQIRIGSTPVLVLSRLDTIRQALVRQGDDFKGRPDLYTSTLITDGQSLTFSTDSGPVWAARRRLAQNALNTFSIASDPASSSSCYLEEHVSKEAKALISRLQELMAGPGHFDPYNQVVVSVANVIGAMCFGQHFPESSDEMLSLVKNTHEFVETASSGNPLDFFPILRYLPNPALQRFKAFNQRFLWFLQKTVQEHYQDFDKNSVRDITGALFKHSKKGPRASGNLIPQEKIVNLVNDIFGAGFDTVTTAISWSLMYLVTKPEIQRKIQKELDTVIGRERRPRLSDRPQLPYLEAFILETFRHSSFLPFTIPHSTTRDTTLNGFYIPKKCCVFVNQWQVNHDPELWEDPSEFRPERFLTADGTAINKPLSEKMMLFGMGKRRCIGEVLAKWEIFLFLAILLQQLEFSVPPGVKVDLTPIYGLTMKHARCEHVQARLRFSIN

ratio of Cmax on Day 11 to the Cmax on Day 1, mean (95% CI) ([1]; Day 11 after fluvoxamine vs Day 1, all subjects)	effect of fluvoxamine co-administration on AUC0-∞ [1]	Ratio of Day 11 AUC0-∞ to Day 1 AUC0-∞, Mean (SD) ([1]; Nonsmokers (N 25))	Ratio of Day 11 AUC0-∞ to Day 1 AUC0-∞, Median (25th-75th) ([1]; Nonsmokers (N 25))	Ratio of Day 11 AUC0-∞ to Day 1 AUC0-∞, Mean (SD) ([1]; Smokers (N 26))	Ratio of Day 11 AUC0-∞ to Day 1 AUC0-∞, Median (25th-75th) ([1]; Smokers (N 26))	AUC0-∞ Mean (SD) ([1]; Study Day 1: Pre-Fluvoxamine)	AUC0-∞ Median (25th-75th) ([1]; Study Day 1: Pre-Fluvoxamine)	AUC0-∞ Mean (SD) ([1]; Study Day 11: Post-Fluvoxamine)	AUC0-∞ Median (25th-75th) ([1]; Study Day 11: Post-Fluvoxamine)	share of pirfenidone metabolism by each of the other CYPs [2] [%]	drop in AUC0-∞ in smokers after accounting for differences in BSA ([1]; Day 1 estimates, AUC0-∞ normalized to body surface area, multiple linear regression, smokers vs nonsmokers) [%]	increase in Cmax after administration of fluvoxamine, on average ([1]; after administration of fluvoxamine)	exposure (AUC0-∞) times higher after fluvoxamine, on average ([1]; after ten days of dosing with fluvoxamine) [times]	decrease in pirfenidone exposure (AUC0-∞) in patients that concomitantly smoke, on average ([1]; compared to patients that do not smoke)	exposure (AUC0-∞) in patients who smoke as % of exposure in patients that didn't smoke, on average ([1]; smokers vs nonsmokers)	share of pirfenidone metabolism by CYP1A2 (CYP1A2)	Structure (SMILES)	incidence of most common adverse reactions (nausea, rash, dyspepsia, dizziness, vomiting, photosensitivity reaction, anorexia) [3] [%]
0.369 (0.349-0.390)	not a statistically significant effect	1.05 (0.114)	1.03 (0.978-1.11)	1.12 (0.0951)	1.13 (1.04-1.19)	29.3 (8.22) mg · hr/L	26.9 (22.0-33.7) mg · hr/L	31.7 (8.96) mg · hr/L	29.4 (25.4-36.5) mg · hr/L	–	–	–	–	–	–	–	O=C(O)c1ccc(=O)n(-c2ccccc2)c1 [5-Carboxy-Pirfenidone, 5-carboxy-pirfenidone]	–
–	significant increase	–	–	–	–	–	–	–	–	< 13	~50	two-fold	~6	about 50%	about 50%	approx. 48%	Cc1ccc(=O)n(-c2ccccc2)c1 [Pirfenidone, 5-methyl-1-phenyl-2-(1H)-pyridone, reference compound]	> 10

— US8754109B2 (Intermune, Inc., priority 2010, dated 2014)
